Results: patent publication EP4745135A1 (Gluetacs Therapeutics (Shanghai) Co., Ltd., priority 2023, dated 2025)

Key:
CK1α = target: T1, CK1α (Homo sapiens, UniProt P48729+Q96SW2); test: Western blot, degradation of substrate protein in hPBMCs; assay type: cell-based
T1 construct: effects of the compounds of the present disclosure on the expression of target proteins in cells; endogenous in cells; host or cells: human PBMCs (Milecell Biotechnologies)

IKZF1 = target: T2, IKZF1 (Homo sapiens, UniProt Q13422+Q96SW2); test: as above; assay type: cell-based
T2 construct: effects of the compounds of the present disclosure on the expression of target proteins in cells; endogenous in cells; host or cells: human PBMCs (Milecell Biotechnologies)
T2 sequence (Q13422 whole entry): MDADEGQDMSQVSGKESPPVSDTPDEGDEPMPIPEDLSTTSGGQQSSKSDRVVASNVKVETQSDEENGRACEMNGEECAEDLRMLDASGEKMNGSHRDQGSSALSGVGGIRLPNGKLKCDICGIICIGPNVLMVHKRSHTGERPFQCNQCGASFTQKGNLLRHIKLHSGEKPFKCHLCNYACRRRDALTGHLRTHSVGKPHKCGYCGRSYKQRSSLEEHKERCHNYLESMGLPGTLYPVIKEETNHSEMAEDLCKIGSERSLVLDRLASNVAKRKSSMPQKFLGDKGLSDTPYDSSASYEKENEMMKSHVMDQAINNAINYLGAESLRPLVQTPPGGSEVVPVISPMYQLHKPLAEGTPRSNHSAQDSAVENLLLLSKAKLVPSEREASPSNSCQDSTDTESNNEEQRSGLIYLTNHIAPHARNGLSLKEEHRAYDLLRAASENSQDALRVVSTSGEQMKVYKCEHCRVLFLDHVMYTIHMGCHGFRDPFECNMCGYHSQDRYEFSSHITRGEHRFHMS
T2 sequence (Q96SW2 whole entry): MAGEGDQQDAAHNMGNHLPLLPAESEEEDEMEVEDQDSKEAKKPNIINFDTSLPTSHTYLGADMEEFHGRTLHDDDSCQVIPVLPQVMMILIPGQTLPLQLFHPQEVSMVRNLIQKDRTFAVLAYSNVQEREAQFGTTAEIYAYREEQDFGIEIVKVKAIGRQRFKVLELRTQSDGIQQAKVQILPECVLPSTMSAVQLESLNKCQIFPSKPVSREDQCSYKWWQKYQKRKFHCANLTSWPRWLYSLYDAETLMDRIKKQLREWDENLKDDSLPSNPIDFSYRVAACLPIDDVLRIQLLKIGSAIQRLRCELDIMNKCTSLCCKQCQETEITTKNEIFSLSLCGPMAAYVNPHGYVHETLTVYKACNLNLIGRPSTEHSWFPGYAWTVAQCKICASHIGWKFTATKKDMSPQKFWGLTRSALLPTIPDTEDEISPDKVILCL
T2 sequence (Q16531 whole entry partner): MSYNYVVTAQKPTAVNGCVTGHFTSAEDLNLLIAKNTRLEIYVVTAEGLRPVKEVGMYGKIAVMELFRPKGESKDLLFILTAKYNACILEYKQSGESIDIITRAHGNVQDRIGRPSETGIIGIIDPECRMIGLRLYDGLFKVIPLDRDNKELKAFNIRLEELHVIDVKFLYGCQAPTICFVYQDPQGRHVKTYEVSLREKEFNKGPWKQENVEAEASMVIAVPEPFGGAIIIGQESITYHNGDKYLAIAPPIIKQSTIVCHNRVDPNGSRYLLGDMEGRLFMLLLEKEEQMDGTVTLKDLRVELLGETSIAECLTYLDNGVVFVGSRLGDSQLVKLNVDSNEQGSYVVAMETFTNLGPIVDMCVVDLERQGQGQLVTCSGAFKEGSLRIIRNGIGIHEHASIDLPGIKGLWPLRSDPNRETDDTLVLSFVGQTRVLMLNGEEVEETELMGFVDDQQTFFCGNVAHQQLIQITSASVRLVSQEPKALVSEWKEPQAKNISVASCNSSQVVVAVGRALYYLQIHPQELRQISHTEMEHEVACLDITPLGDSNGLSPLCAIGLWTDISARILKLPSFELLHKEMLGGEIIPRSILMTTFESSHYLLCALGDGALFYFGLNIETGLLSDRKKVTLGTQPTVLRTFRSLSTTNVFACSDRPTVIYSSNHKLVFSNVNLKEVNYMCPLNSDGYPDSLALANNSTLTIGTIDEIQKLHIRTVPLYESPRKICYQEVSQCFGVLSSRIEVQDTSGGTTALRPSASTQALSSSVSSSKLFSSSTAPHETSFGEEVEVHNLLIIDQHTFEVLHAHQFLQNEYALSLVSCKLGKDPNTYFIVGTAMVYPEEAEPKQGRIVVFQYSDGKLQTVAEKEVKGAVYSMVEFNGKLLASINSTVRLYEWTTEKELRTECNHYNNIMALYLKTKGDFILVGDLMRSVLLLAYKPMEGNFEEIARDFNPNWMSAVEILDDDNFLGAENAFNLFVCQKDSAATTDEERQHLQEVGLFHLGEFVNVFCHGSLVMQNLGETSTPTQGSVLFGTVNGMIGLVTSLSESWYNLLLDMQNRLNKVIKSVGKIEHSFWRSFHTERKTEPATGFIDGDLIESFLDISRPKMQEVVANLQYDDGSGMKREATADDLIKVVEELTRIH

IKZF2 = target: T3, IKZF2 (Homo sapiens, UniProt Q96SW2+Q9UKS7); test: as above; assay type: cell-based
T3 construct: effects of the compounds of the present disclosure on the expression of target proteins in cells; endogenous in cells; host or cells: human PBMCs (Milecell Biotechnologies)
T3 sequence (Q9UKS7 whole entry): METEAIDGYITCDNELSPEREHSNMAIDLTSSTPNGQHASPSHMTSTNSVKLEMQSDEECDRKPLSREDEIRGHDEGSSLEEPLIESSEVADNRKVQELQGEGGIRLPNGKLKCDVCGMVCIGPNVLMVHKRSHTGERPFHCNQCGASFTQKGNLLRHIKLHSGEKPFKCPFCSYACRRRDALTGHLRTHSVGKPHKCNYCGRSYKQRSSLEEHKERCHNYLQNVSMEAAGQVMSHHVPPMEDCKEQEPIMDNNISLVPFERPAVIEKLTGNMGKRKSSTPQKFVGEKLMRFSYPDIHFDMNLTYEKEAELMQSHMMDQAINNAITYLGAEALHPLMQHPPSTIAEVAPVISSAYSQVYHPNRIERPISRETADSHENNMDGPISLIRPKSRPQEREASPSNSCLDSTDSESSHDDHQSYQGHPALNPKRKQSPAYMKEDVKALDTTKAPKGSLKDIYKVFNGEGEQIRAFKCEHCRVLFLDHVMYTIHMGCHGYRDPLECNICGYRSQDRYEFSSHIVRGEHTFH
T3 sequence (Q96SW2 whole entry): as the sequence (Q96SW2 whole entry) above
T3 sequence (Q16531 whole entry partner): as the sequence (Q16531 whole entry partner) above

IKZF3 = target: T4, IKZF3 (Homo sapiens, UniProt Q96SW2+Q9UKT9); test: as above; assay type: cell-based
T4 construct: effects of the compounds of the present disclosure on the expression of target proteins in cells; endogenous in cells; host or cells: human PBMCs (Milecell Biotechnologies)
T4 sequence (Q9UKT9 whole entry): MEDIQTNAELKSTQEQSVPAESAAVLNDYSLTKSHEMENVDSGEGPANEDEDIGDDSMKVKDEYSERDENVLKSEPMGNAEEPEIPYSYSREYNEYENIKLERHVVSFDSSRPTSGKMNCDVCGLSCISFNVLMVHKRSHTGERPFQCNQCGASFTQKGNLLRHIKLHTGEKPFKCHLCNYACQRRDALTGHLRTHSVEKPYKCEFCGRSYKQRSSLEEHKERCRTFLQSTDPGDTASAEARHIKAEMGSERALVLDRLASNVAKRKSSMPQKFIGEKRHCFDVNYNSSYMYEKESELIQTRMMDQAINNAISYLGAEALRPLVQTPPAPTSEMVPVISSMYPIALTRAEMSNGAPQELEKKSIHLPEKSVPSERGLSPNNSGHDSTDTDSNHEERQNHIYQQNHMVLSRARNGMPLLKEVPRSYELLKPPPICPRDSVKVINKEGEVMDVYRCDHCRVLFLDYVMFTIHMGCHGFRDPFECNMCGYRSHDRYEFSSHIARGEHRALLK
T4 sequence (Q96SW2 whole entry): as the sequence (Q96SW2 whole entry) above
T4 sequence (Q16531 whole entry partner): as the sequence (Q16531 whole entry partner) above

WEE1 = target: T5, WEE1 (Homo sapiens, UniProt P30291+Q96SW2); test: as above; assay type: cell-based
T5 construct: effects of the compounds of the present disclosure on the expression of target proteins in cells; endogenous in cells; host or cells: human PBMCs (Milecell Biotechnologies)
T5 sequence (P30291 whole entry): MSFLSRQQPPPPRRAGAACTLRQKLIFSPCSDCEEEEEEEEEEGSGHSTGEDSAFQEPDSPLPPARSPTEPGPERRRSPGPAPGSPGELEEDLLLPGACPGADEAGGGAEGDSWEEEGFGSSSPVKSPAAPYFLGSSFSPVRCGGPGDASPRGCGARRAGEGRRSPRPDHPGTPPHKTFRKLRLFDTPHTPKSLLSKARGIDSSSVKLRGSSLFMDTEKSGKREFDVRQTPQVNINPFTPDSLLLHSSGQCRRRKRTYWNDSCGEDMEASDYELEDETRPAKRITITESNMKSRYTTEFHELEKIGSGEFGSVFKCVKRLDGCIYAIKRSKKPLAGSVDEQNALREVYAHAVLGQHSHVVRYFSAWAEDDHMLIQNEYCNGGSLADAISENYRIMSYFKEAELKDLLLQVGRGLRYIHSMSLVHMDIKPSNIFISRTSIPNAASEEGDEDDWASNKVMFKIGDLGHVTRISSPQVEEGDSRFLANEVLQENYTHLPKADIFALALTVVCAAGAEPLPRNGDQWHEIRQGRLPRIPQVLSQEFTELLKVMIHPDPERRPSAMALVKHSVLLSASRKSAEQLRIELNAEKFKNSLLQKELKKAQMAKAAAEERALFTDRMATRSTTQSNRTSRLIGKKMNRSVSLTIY
T5 sequence (Q96SW2 whole entry): as the sequence (Q96SW2 whole entry) above
T5 sequence (Q16531 whole entry partner): as the sequence (Q16531 whole entry partner) above

GSPT1 = test: as above; assay type: cell-based, Human
[1] = target: T6, human Cereblon WT GST-tagged protein (Homo sapiens, UniProt Q96SW2); test: CRBN-binding affinity, HTRF (CEREBLON BINDING kit); conditions: for inhibition at 0.5 µM: read-out: Inhibition Rate at 0.5 µM (%); for inhibition at 2 µM: read-out: Inhibition Rate at 2 µM (%)
T6 construct: purchased CISBIO 64BDCRBNPEH
T6 sequence (Q96SW2 whole entry): as the sequence (Q96SW2 whole entry) above

[2] = tested on: Human multiple myeloma cell (MM.1S); test: Tumor cell proliferation inhibition (CellTiter-Meiluncell luminescent cell viability assay); conditions: for inhibition at 0.01 µM / inhibition at 0.5 µM: Homo sapiens, MM1.S, 96 h; for inhibition at 0.01 µM: read-out: Inhibition Rate at 10 nM (%); for inhibition at 0.5 µM: read-out: Inhibition Rate at 500 nM (%)
[3] = tested on: Human multiple myeloma peripheral blood B lymphocyte cell (RPMI-8226); test: as above; conditions: RPMI-8226, 96 h; for inhibition at 0.01 µM: read-out: Inhibition Rate at 10 nM (%); for inhibition at 0.5 µM: read-out: Inhibition Rate at 500 nM (%)
[4] = tested on: Human acute T lymphocytic leukemia cell (Molt4); test: as above; conditions: MOLT-4, 96 h; for inhibition at 0.01 µM: read-out: Inhibition Rate at 10 nM (%); for inhibition at 0.5 µM: read-out: Inhibition Rate at 500 nM (%)
[5] = tested on: Human myeloid monocytic leukemia cell (MV-4-11); test: as above; conditions: MV4-11, 96 h; for inhibition at 0.01 µM: read-out: Inhibition Rate at 10 nM (%); for inhibition at 0.5 µM: read-out: Inhibition Rate at 500 nM (%)
[6] = tested on: Human breast cancer cell (MCF-7); test: as above; conditions: MCF7, 96 h; for inhibition at 0.5 µM: read-out: Inhibition Rate at 500 nM (%)
Procedure: (§1) The tumor cells used herein were cultured in a cell culture medium listed in table 2 at 37°C in an incubator with 5% CO2. Prior to experimentation, all cell lines used were correctly identified by STR profiling, and tested negative for mycoplasma contamination using a mycoplasma detection kit through routine screenings.
(§2) The IC50 values of the compounds of the present disclosure (including the compounds in Table 1 and Examples) were determined using the CellTiter-Meiluncell Luminescent Cell Viability Assay Kit from Dalian Meilun Biotech Co., Ltd. The detailed procedure is as follows: Tumor cells were seeded in 96-well cell culture plates at the densities specified in Table 3. On the following day, the test compounds of the present disclosure were subjected to serial dilution. The dilution can be performed according to one of the following two methods: • (1) The first dilution method: The test compounds of the present disclosure (including the compounds in Table 1 and Examples) were subjected to 5-fold serial dilutions starting from a highest concentration of 2000 µM, resulting in a total of 9 concentrations from high to low (2000, 400, 80, 16, 3.2, 0.64, 0.128, 0.0256, 0.00512 µM). Subsequently, 0.5 µL of the test compound dilution was transferred into the 96-well plate containing the cells, with each well containing 100 µL of cell culture medium. […] Into the 96-well plate, the diluted test compounds and corresponding detection reagents were added, resulting in final test compound concentrations of 500 nM and 10 nM, respectively. The experimental procedure is described below using the diluted 2 µM test compound as an example.
(§3) 0.5 µL of the aforementioned diluted compound of the present disclosure (including the compounds in Table 1 and Examples) was added to the seeded cells in 100 µL of medium, yielding a final test compound concentration of 10 nM. After the cells were treated with the compounds of the present disclosure for a specified period, the cell viability assay reagent was added to the culture medium according to the kit's instructions to determine cell viability. […] All controls were treated using the same procedure as the compounds of the present disclosure. The growth inhibition curves for the compounds of the present disclosure were plotted using Prism GraphPad software, and the IC50 values were calculated therefrom.

[7] = tested on: Human T cell acute lymphoblastic leukemia cell (CCRF-CEM); test: as above; conditions: 96 h; for inhibition at 0.01 µM: read-out: Inhibition Rate at 10 nM (%); for inhibition at 0.5 µM: read-out: Inhibition Rate at 500 nM (%)
Procedure: as §1, §2, §3

[8] = tested on: Human acute myeloid leukemia cell line: Kasumi-1; test: as above; conditions: Kasumi 1, 96 h; for inhibition at 0.01 µM: read-out: Inhibition Rate at 10 nM (%); for inhibition at 0.5 µM: read-out: Inhibition Rate at 500 nM (%)
Procedure: as §1, §2, §3

[9] = tested on: Human T lymphocytic leukemia cell line: Jurkat; test: as above; conditions: 96 h; for inhibition at 0.01 µM: read-out: Inhibition Rate at 10 nM (%); for inhibition at 0.5 µM: read-out: Inhibition Rate at 500 nM (%)
Procedure: as §1, §2, §3

[10] = Western blot, 24 hours of compound treatment, compounds tested at 50 nM and 500 nM (concentration for the table not stated)
[11] = 24 hours treatment, compounds at 50 nM and 500 nM (concentration behind the class not stated)

T1 sequence (P48729 whole entry): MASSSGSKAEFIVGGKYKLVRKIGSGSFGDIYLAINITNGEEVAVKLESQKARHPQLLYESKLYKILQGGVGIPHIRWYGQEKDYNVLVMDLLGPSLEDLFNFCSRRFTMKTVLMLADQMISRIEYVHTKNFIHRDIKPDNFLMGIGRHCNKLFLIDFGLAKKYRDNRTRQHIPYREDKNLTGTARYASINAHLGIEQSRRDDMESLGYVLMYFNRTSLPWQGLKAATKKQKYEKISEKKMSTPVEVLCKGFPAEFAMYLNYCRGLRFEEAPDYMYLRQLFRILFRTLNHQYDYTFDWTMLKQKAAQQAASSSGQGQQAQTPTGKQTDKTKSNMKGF
T1 sequence (Q96SW2 whole entry): as the sequence (Q96SW2 whole entry) above
T1 sequence (Q16531 whole entry partner): as the sequence (Q16531 whole entry partner) above

SMILES	inhibition at 0.5 µM [1] [%]	inhibition at 2 µM [1] [%]	inhibition at 0.01 µM [2] [%]	inhibition at 0.5 µM [2] [%]	inhibition at 0.01 µM [3] [%]	inhibition at 0.5 µM [3] [%]	inhibition at 0.01 µM [4] [%]	inhibition at 0.5 µM [4] [%]	inhibition at 0.01 µM [5] [%]	inhibition at 0.5 µM [5] [%]	inhibition at 0.01 µM [7] [%]	inhibition at 0.5 µM [7] [%]	inhibition at 0.01 µM [8] [%]	inhibition at 0.5 µM [8] [%]	inhibition at 0.01 µM [9] [%]	inhibition at 0.5 µM [9] [%]	CK1α substrate protein remaining % (CK1α; [11])	IKZF 1 substrate protein remaining % (IKZF1; [11])	IKZF2 substrate protein remaining % (IKZF2; [11])	IKZF3 substrate protein remaining % (IKZF3; [11])	further results
O=C1CCC(N2Cc3cc(CN4CCC(N(c5ccccc5)c5ccccn5)CC4)ccc3C2=S)C(=O)N1 (stereo not drawn) [GT-07846, 3-(5-((4-(phenyl(pyridin-2-yl)amino)piperidin-1-yl)methyl)-1-thioxoisoindolin-2-yl)piperidine-2,6-dione]	53 to 60	80 to 100	60 to 70	80 to 100	20 to 30	60 to 70	70 to 80	80 to 100	10 to 18	80 to 100	40 to 50	80 to 100	40 to 50	80 to 100	30 to 40	80 to 100					CK1α substrate protein remaining % (CK1α; [10]): B (80%< substrate protein remaining %≤ 100%); IKZF 1 substrate protein remaining % (IKZF1; [10]): A (0% ≤ substrate protein remaining % ≤ 80%); IKZF2 substrate protein remaining % (IKZF2; [10]): A (0% ≤ substrate protein remaining % ≤ 80%); IKZF3 substrate protein remaining % (IKZF3; [10]): A (0% ≤ substrate protein remaining % ≤ 80%); Wee1 substrate protein remaining % (WEE1; [10]): A (0% ≤ substrate protein remaining % ≤ 80%); GSPT1 substrate protein remaining % (GSPT1; [10]): A (0% ≤ substrate protein remaining % ≤ 80%); inhibition at 0.5 µM [6]: 40 to 50%
O=C1CCC(N2Cc3cc(CN4CCN(Cc5ccccc5-c5ccc(Cl)cc5)CC4)ccc3C2=S)C(=O)N1 (stereo not drawn) [GT-08166, 3-(5-((4-((4'-chloro-[1,1'-biphenyl]-2-yl)methyl)piperazin-1-yl)methyl)-1-thioxoisoindolin-2-yl)piperidine-2,6-dione]	20 to 30	60 to 80	40 to 50	80 to 100	10 to 20	60 to 70	10 to 20	80 to 100	30 to 40	80 to 100	10 to 20	80 to 100	10 to 20	80 to 100	10 to 20	80 to 100	B (80%< substrate protein remaining %≤ 100%)	B (80%< substrate protein remaining %≤ 100%)	A (0% ≤ substrate protein remaining % ≤ 80%)	A (0% ≤ substrate protein remaining % ≤ 80%)	Wee1 substrate protein remaining % (WEE1; [11]): A (0% ≤ substrate protein remaining % ≤ 80%); GSPT1 substrate protein remaining % (GSPT1; [11]): A (0% ≤ substrate protein remaining % ≤ 80%); inhibition at 0.5 µM [6]: 60 to 70%
O=C1CCC(N2Cc3cc(CN4CC=C(c5cccs5)CC4)ccc3C2=S)C(=O)N1 (stereo not drawn) [GT-08171, 3-(5-((4-(thiophen-2-yl)-3,6-dihydropyridin-1(2H)-yl)methyl)-1-thioxoisoindolin-2-yl)piperidine-2,6-dione]	60 to 80	80 to 100	50 to 60	80 to 100	20 to 30	80 to 100	80 to 100	80 to 100	60 to 80	80 to 100	70 to 80	80 to 100	30 to 40	80 to 100	40 to 50	80 to 100	A (0% ≤ substrate protein remaining % ≤ 80%)	A (0% ≤ substrate protein remaining % ≤ 80%)	A (0% ≤ substrate protein remaining % ≤ 80%)	A (0% ≤ substrate protein remaining % ≤ 80%)	Wee1 substrate protein remaining % (WEE1; [11]): A (0% ≤ substrate protein remaining % ≤ 80%); GSPT1 substrate protein remaining % (GSPT1; [11]): A (0% ≤ substrate protein remaining % ≤ 80%); inhibition at 0.01 µM ([6]; read-out: Inhibition Rate at 10 nM (%)): 20 to 30%; inhibition at 0.5 µM [6]: 70 to 80%
Cc1cc(C2CCN(Cc3ccc4c(c3)CN(C3CCC(=O)NC3=O)C4=S)CC2)cs1 (stereo not drawn) [GT-08325, 3-(5-((4-(5-methylthiophen-3-yl)piperidin-1-yl)methyl)-1-thioxoisoindolin-2-yl)piperidine-2,6-dione]	60 to 80	80 to 100	30 to 40	80 to 100	20 to 30	60 to 70	10 to 20	80 to 100	60 to 80	100 to 110	10 to 20	80 to 100	0 to 5	80 to 100	-5 to 0	70 to 80	A (0% ≤ substrate protein remaining % ≤ 80%)	B (80%< substrate protein remaining %≤ 100%)	B (80%< substrate protein remaining %≤ 100%)	B (80%< substrate protein remaining %≤ 100%)	Wee1 substrate protein remaining % (WEE1; [11]): A (0% ≤ substrate protein remaining % ≤ 80%); GSPT1 substrate protein remaining % (GSPT1; [11]): A (0% ≤ substrate protein remaining % ≤ 80%)
O=C1CCC(N2Cc3cc(CN4CCC(c5cccs5)CC4)ccc3C2=S)C(=O)N1 (stereo not drawn) [GT-08329, 3-(5-((4-(thiophen-2-yl)piperidin-1-yl)methyl)-1-thioxoisoindolin-2-yl)piperidine-2,6-dione]	40 to 53	80 to 100	10 to 20		10 to 20	70 to 80	10 to 20	80 to 100	-5 to 0	80 to 100	10 to 20	80 to 100	5 to 10	80 to 100	10 to 20	70 to 80	A (0% ≤ substrate protein remaining % ≤ 80%)	B (80%< substrate protein remaining %≤ 100%)	B (80%< substrate protein remaining %≤ 100%)	B (80%< substrate protein remaining %≤ 100%)	Wee1 substrate protein remaining % (WEE1; [11]): A (0% ≤ substrate protein remaining % ≤ 80%); GSPT1 substrate protein remaining % (GSPT1; [11]): A (0% ≤ substrate protein remaining % ≤ 80%); Inhibition Rate at 500 nM (%) ([2]; MM.1S, 500 nM, 96 hours): la10
